Assay [1] concerns human foreskin fibroblasts (HFF-1, ATCC). Description: Collagen gel contraction induced by TGF-β1. Type of assay: cell-based. Conditions: HFF-1 cells and bovine type I collagen; TGF-β1 (10 ng/ml); 72 hours; FIG. 7. The text has this:
In order to confirm the effect of the compounds of Synthetic examples on differentiation of fibroblasts into myofibroblasts, the inhibitory effect of the compounds of Synthetic examples on the phenomenon of contraction of gel induced by interaction of human foreskin fibroblasts (HFF-1, ATCC) and collagen was observed.
The mixed solution of the HFF-1 cells and collagen (bovine type I collagen) prepared at a concentration of 3×10^6 cells/ml was aliquoted in a 24 well plate, respectively, and then cultured under the condition of 5% CO2, 37 °C for 1 hour to induce gel polymerization. Then, after suspending the gel attached on the plate from the plate using a spoon, a medium comprising TGF-β1 and Synthetic example compounds was added to each well. After culturing for 72 hours, the Synthetic example compounds were treated by 10, 20, 30, 40, 60 and 80 µM to measure the size of the gel, and thereby, the degree of contraction of the gel by drug treatment was confirmed.

Assay [2] relates to N27 (rat dopaminergic neural cell, Sigma) cells. Description: ROS production induced by alpha-synuclein preformed fibril (PFF) in dopaminergic neural cells (CellROX-Deep Red). Type of assay: cell-based. Conditions: 0.001 µM, 24 hours, FIG. 2. As for the experimental part:
In order to confirm the effect of the compounds of Synthetic examples on ROS production from dopaminergic neural cells, ROS production was induced by alpha-synuclein preformed fibril (PFF) stimulation on N27 (rat dopaminergic neural cell, Sigma) cells and under this condition, the inhibitory effect of ROS production of the compounds of Synthetic examples was observed.
The N27 cells were cultured in RPMI medium containing 10% FBS, 1 µM angiotensin II, and the prepared cells were aliquoted at a concentration of 4×10^3 cells/well on a 6-well plate. The ROS production stimulus, PFF (preformed fibril) and the compounds of Synthetic examples were treated to the cells. After treating the compounds of Synthetic examples for 24 hours, fluorescence of each well was measured using CellROX-Deep Red reagent, thereby confirming the degree of ROS production.

Another assay concerns IL-8. The assay can be described thus: Expression of IL-8 in pancreatic cancer associated fibroblasts (ELISA). Type of assay: cell-based, human. To be noted: P.CAF cells; compounds 10, 20, 30, 40, 60 and 80 µM for 48 hours; FIG. 6. On the procedure: (§1) In order to confirm the effect of the compounds of Synthetic examples of the present invention on inflammation reaction in cancer associated fibroblasts, whether the expression of IL6 and IL8 was inhibited by the compounds of Synthetic examples in pancreatic cancer associated fibroblasts (PCAF) was observed.
(§2) After inoculating 1.5×10^5 cells in a 6 well plate and then culturing in P.CAF complete media for 48 hours, the compounds of Synthetic examples were treated by 10, 20, 30, 40, 60 and 80 µM for 48 hours according to each condition, and then the expression of IL-6 and IL-8 was confirmed by performing ELISA with Quantkine ELISA kit (R&D systems) as follows.
(§3) 100 µl of the culture solution in which the compounds of Synthetic examples were treated for 48 hours was added to the microplate strip for analysis including a 100 µl assay diluent and left at a room temperature for 2 hours and then the contents were removed, and then it was washed with 400 µl wash buffer 4 times. 200 µl of a human IL-6 or IL-8 conjugate was added and left at a room temperature for 2 hours and then the contents were removed, and then it was washed with 400 µl wash buffer 4 times. 200 µl of substrate solution was added and left at a room temperature for 20 minutes and then 50 µl of stop solution was added, and the absorbance at a wavelength of 450nm was measured within 30 minutes to confirm the expression level of IL-6 and IL-8.

The subject of the next assay is IL-6. Description: Expression of IL-6 in pancreatic cancer associated fibroblasts (ELISA). In kind it is cell-based, human. To be noted: P.CAF cells; compounds 10, 20, 30, 40, 60 and 80 µM for 48 hours; FIG. 5. On the procedure:
as §1, §2, §3

Assay [3] deals with alpha-synuclein preformed fibril (PFF) injection Parkinson's disease mouse model. Description: Brain damage treatment effect in PFF injection Parkinson's disease mouse model. Type of assay: in vivo, C57Bl/6 mice. To be noted: 25 mg/kg orally once a day for 7 weeks. On the procedure:
In order to test the effect for preventing or treating brain disease or disorder of the compounds of Synthetic examples, it was evaluated using an alpha-synuclein preformed fibril (PFF) injection Parkinson's disease mouse model.
C57Bl/6 mice were used, and all the mice were maintained under the standard condition. The experiment was conducted by dividing the experimental animals into a normal control group in which distilled water was orally administered (negative control), an alpha-synuclein preformed fibril (PFF) injection Parkinson's disease induction group (vehicle control), and an experimental group in which the compound of Synthetic example 16 of 25 mg/kg was orally administered into the alpha-synuclein preformed fibril (PFF) injection Parkinson's induction group daily (Synthetic example) with 8 animals in each group. For the normal control group, physiological saline solution was administered, and the Synthetic example compound was orally administered once a day for 7 weeks, and then a behavior change experiment and a histopathological experiment were performed.
The behavior change was analyzed by Rota rod, pole test and hindlimb clasping, and the average value of the 3 experiments per each animal was measured. […]

In assay [4] the test system is NHLF (normal human lung fibroblast). Description: ROS production induced by PMA in NHLF cells. Type of assay: cell-based. To be noted: FIG. 1. The text has this: (§4) In order to confirm the effect of the compounds of Synthetic examples on ROS production from fibroblasts and specific substrate cells, ROS production was induced by stimulation of PMA (phorbol 12-myristate 13-acetate), TGF-β1, palmitate or high concentration-glucose, or the like, in HL-60 cells differentiated into neutrophil cells by DMSO treatment, NHLF (normal human lung fibroblast, Lonza), LX-2 (human hepatic stellate cells, Sigma), ARPE19 (human retinal pigment epithelial cell, ATCC), and KEL-FIB (Keloid fibroblast, ATCC) cells, and under this condition, the inhibitory effect of ROS production of the compounds of Synthetic examples was observed.
(§5) The NHLF (normal human lung fibroblast, Lonza), LX-2 (human hepatic stellate cells, Sigma), ARPE19 (human retinal pigment epithelial cell, ATCC), KEL-FIB (keloid fibroblast, ATCC) cells were suspended in a culture medium containing 10% FBS and aliquoted on a 96 well plate and then cultured under the condition of 5% CO2, 37°C for 24 hours. After pre-treating the compounds of Synthetic examples at a concentration of 10, 20, 30, 40, 60 and 80 µM for 30 minutes to 1 hour, the ROS stimulus was treated to each well containing the cells and drug. After additional culturing for 48 hours, the ROS production level was confirmed using L-012 or DCF-DA.

The test system of assay [5] is LX-2 (human hepatic stellate cells). Description: ROS production induced by PMA in LX-2 cells. Type of assay: cell-based. To be noted: FIG. 1.
Text: as §4, §5

Consider 13 compounds from patent EP4501920A1, “NOVEL PYRAZOLE DERIVATIVES” (Aptabio Therapeutics Inc., priority 2022, dated 2023).

Regarding `CN(Cc1ccc(S(C)(=O)=O)cc1)C1CCc2nn(-c3ccccn3)c(O)c2C1` (stereo not drawn) [Compound 12, 5-[(4-Methanesulfonylbenzyl)methylamino]-2-(pyridin-2-yl)-4,5,6,7-tetrahydro-2H-indazol-3-ol], the “contraction of the gel induced by TGF-β1” value in assay [1] was “effectively inhibited”. Moreover, the “ROS production induced by PFF” value in assay [2] is on record as “effectively inhibited”.
On to `CN(Cc1ccc(F)cc1F)C1CCc2nn(-c3ccccn3)c(O)c2C1` (stereo not drawn) [Compound 5, 5-[(2,4-Difluorobenzyl)methylamino]-2-(pyridin-2-yl)-4,5,6,7-tetrahydro-2H-indazol-3-ol], for which the “contraction of the gel induced by TGF-β1” value in assay [1] is “effectively inhibited”. In the assay with IL-8, the “IL-8 expressed in P.CAF” value is listed as “effectively inhibited”. For the same compound, the “IL-6 expressed in P.CAF” value with IL-6 is recorded as “effectively inhibited”.
As to `CN(Cc1cc2ccccc2cn1)C1CCc2nn(-c3ccccn3)c(O)c2C1` (stereo not drawn) [Compound 62, 5-[(Isoquinolin-3-ylmethyl)methylamino]-2-(pyridin-2-yl)-4,5,6,7-tetrahydro-2H-indazol-3-ol], the “contraction of the gel induced by TGF-β1” value in assay [1] is on record as “effectively inhibited”. Moreover, the “IL-8 expressed in P.CAF” value in the assay with IL-8 is reported as “effectively inhibited”. Moreover, the “IL-6 expressed in P.CAF” value in the assay with IL-6 is “effectively inhibited”.
Turning to `CN(Cc1ccc2ncccc2c1)C1CCc2nn(-c3ccccn3)c(O)c2C1` (stereo not drawn) [Compound 63, 5-[Methyl(quinolin-6-ylmethyl)amino]-2-(pyridin-2-yl)-4,5,6,7-tetrahydro-2H-indazol-3-ol], the “contraction of the gel induced by TGF-β1” value in assay [1] is given as “effectively inhibited”. Also, the “IL-8 expressed in P.CAF” value with IL-8 was “effectively inhibited”. Besides, the “IL-6 expressed in P.CAF” value in the assay on IL-6 is listed as “effectively inhibited”.
For the compound `O=C(C1CC1)N1CCN(C2CCc3nn(-c4ccccn4)c(O)c3C2)CC1` (stereo not drawn) [Compound 38, Cyclopropyl[4-(3-hydroxy-2-(pyridin-2-yl)-4,5,6,7-tetrahydro-2-indazol-5-yl)piperazin-1-yl]methanone], the “contraction of the gel induced by TGF-β1” value in assay [1] is “effectively inhibited”. The “IL-8 expressed in P.CAF” value in the assay with IL-8 is given as “effectively inhibited”. Moreover, the “IL-6 expressed in P.CAF” value in the assay on IL-6 is given as “effectively inhibited”.
Consider `COc1cccc(CN(C)C2CCc3nn(-c4ccccn4)c(O)c3C2)c1` (stereo not drawn) [Compound 13, 5-[(3-Methoxybenzyl)methylamino]-2-(pyridin-2-yl)-4,5,6,7-tetrahydro-2H-indazol-3-ol], for which the “contraction of the gel induced by TGF-β1” value in assay [1] is recorded as “effectively inhibited”.
Consider `Oc1c2c(nn1-c1ccccn1)CCC(N1CCCCC1)C2` (stereo not drawn) [Compound 14, 5-Piperidin-1-yl-2-(pyridin-2-yl)-4,5,6,7-tetrahydro-2H-indazol-3-ol], for which the “contraction of the gel induced by TGF-β1” value in assay [1] was “effectively inhibited”.
In the case of `CN1CCN(C2CCc3nn(-c4ccc(C(F)(F)F)cn4)c(O)c3C2)CC1` (stereo not drawn) [Compound 82, 5-(4-Methylpiperazin-1-yl)-2-(5-(trifluoromethyl)pyridin-2-yl)-4,5,6,7-tetrahydro-2H-indazol-3-ol], in assay [2], the “ROS production induced by PFF” value is reported as “effectively inhibited”.
For the compound `CN1CCN(C2CCc3nn(-c4ccccn4)c(O)c3C2)CC1` (stereo not drawn) [Compound 16, 5-(4-Methylpiperazin-1-yl)-2-(pyridin-2-yl)-4,5,6,7-tetrahydro-2H-indazol-3-ol], in assay [1], the “contraction of the gel induced by TGF-β1” value is “effectively inhibited”. In assay [2], the “ROS production induced by PFF” value is given as “effectively inhibited”. In assay [3] (Rota rod, pole test, hindlimb clasping), the “Parkinson-like behavior symptoms improved” value is on record as not below 50%. The “aggregation and accumulation of a-synuclein improved” value in assay [3] (striatum histopathology) was not below 50%.
On to `CN(Cc1cccc(S(C)(=O)=O)c1)C1CCc2nn(-c3ccccn3)c(O)c2C1` (stereo not drawn) [Compound 23, 5-[Methyl(3-methylsulfonylbenzyl)amino]-2-(pyridin-2-yl)-4,5,6,7-tetrahydro-2H-indazol-3-ol], for which the “contraction of the gel induced by TGF-β1” value in assay [1] was “effectively inhibited”. The “IL-8 expressed in P.CAF” value with IL-8 was “effectively inhibited”. Moreover, the “IL-6 expressed in P.CAF” value with IL-6 is “effectively inhibited”.
Consider `OCCOCCN1CCN(C2CCc3nn(-c4ccccn4)c(O)c3C2)CC1` (stereo not drawn) [Compound 17], for which the “ROS production induced by PMA” value in assay [4] and in assay [5] was “inhibited” throughout.
As for `Oc1c2c(nn1-c1ccccn1)CCC(Nc1ccc(F)c(F)c1)C2` (stereo not drawn) [Compound 32, 5-(3,4-Difluorophenylamino)-2-(pyridin-2-yl)-4,5,6,7-tetrahydro-2H-indazol-3-ol], the “ROS production induced by PFF” value in assay [2] is “effectively inhibited”.
As for `CN(C1CCc2nn(-c3ccccn3)c(O)c2C1)C1CCCc2cccnc21` (stereo not drawn) [Compound 33, 5-[Methyl(5,6,7,8-tetrahydroquinolin-8-yl)amino]-2-(pyridin-2-yl)-4,5,6,7-tetrahydro-2H-indazol-3-ol], the “contraction of the gel induced by TGF-β1” value in assay [1] is given as “effectively inhibited”. Moreover, the “IL-8 expressed in P.CAF” value in the assay with IL-8 was “effectively inhibited”. For the same compound, the “IL-6 expressed in P.CAF” value in the assay with IL-6 is on record as “effectively inhibited”.
